From patent US5811450A, “Thiepane compounds” (Gilead Sciences, Inc., priority 1996, dated 1998)
pIC50: −log10 of the molar value. Read-outs that look alike come from different tables or passages of the source.

Tests used:
HIV protease = biological target: T1, HIV protease (Human immunodeficiency virus type 1 group M subtype B, UniProt P04585); test: biochemical
T1 construct: fluorometric method for measurement of HIV-protease (HIV-PR) activity utilizing a synthetic peptide substrate
Description: Compositions to be subjected to enzyme assay are lyophilited and diluted in DMSO to 100-1000 μM. Compositions having apparent IC50 <1 μm are diluted to 100 μM.
The assay is a fluorometric method for measurement of HIV-protease (HIV-PR) activity utilizing a synthetic peptide substrate for HIV-PR based on that described by Matayoshi, E.D.; Wang, G.T.; Krafft, G.A.; and Erickson, J.W.; Science, 1990, 247, 954-958; and Wang, G.T.; Huffker, J.A.; Matayoshi, E.; and Krafft, G.A.; Tetrahedron Lett., 1990, 165 6493-6496.
Buffer: 0.1M sodium acetate
1.0 mM ethylenediaminetetraacetic acid (EDTA)
1.0 mM dithiothreitol (DTT)
10% dimethyl sulfoxide (DMSO)
1 mg/mL bovine serum albumin (BSA) adjusted to pH 4.7
1. Prepare a solution of 2 μM HIV Protease Substrate 1 in the Assay Buffer.
2. Dispense the substrate solution into UV-pass fluorescence cuvettes (1 cm pathlength).
3. Set the excitation and emission monochromators of the spectrofluorimeter to 340 nm and 490 nm, respectively. To obtain the same kinetic constants as reported, cuvettes should be held at 37° C. throughout the assay.
4. Begin each assay by adding a small amount (<3% of the final volume) of HIV-PR-containing solution diluted tin the Assay Buffer.
5. Measure the initial rate of cleavage of fluorogenic substrate by monitoring the increase in fluorescence signal at 490 nm for 5-8 min at 37° C.
(§1) The apparent IC50 and IC50 values reported below in Table 25 were determined using the assays of Example 34 and 35, respectively. The values are indicated as follows: +=10-50 μM, ++2-10 μM, and +++<2 μM.

HIV IIIB = test: XTT cell culture assay, cells infected with HIV IIIB; type: cell-based; conditions: Human immunodeficiency virus 1, IIIB, read-out: Cell Culture IC50
Description: The method of Weislow, O.S.; Kiser, R.; Fine, D.L.; Bader, J.; Shoemaker, R.H.; and Boyd, M.R.; I. Nat. Cancer Institute, 1989, 81(8) 577-586 was applied with the following minor modifications:. Infection of cells with HIV IIIB was performed without polybrene. Cells were distributed to Microtiter wells containing the compound of the invention 4 h after infection with HIV IIIB. 2×XTT was added at 5-6 days post infection. 20 μl 2% Triton X-100 was added 1 hour after XTT addition.
1. Add 4 ml of XTT (5 mg/ml) to 8 ml of Deficient RPMI medium (no phenol red, no serum). Mix briefly at 45° C. to dissolve XTT.
2. Add 800 μl of PMS (0.2 mg/ml) to XTT/RPMI mixture.
3. Remove […] of cell free media from each well of a 96 well plate and replace with 100 μl of the XTT/PMS mixture.
4. Incubate at 37° C. for 1.5-2 h.
5. Read absorbance at 450 nm. Absorbance values are directly proportional to cell viability.
as §1

[1] = HIV protease, fluorogenic peptide substrate, pH 4.7, 37° C., read-out: Apparent Enzyme IC50
[2] = XTT assay, HIV IIIB infected cells, XTT 5-6 days post infection

pIC50 (HIV protease; [1])	pIC50 (HIV IIIB; [2])	SMILES	other results
5.00 to 5.70	–	[O-][S+]1CC(OCc2ccccc2)C(O)C(O)C(OCc2ccccc2)C1Cc1ccccc1 (centres unmarked) [107/3]	–
5.00 to 5.70	4.30 to 5.00	[O-][S+]1CC(OCc2ccccc2)C(O)C(O)C(OCc2ccccc2)C1Cc1ccccc1 (centres unmarked) [107/4]	–
4.30 to 5.00	–	N#Cc1ccccc1O[C@@H]1[C@H](O)[C@@H](O)[C@@H](Oc2ccccc2C#N)C[S@+]([O-])[C@@H]1Cc1ccccc1 [107/8]	–
4.30 to 5.00	–	N#Cc1ccc(O[C@@H]2[C@H](O)[C@@H](O)[C@@H](Oc3ccc(C#N)cc3)C[S@@+]([O-])[C@@H]2Cc2ccccc2)cc1 [107/13]	–
–	5.00 to 5.70	[O-][S+]1C(Cc2ccccc2)C(OCc2ccccc2)C(O)C(O)C(OCc2ccccc2)C1Cc1ccccc1 (centres unmarked) [108/17]	–
> 5.70	5.00 to 5.70	O=[N+]([O-])c1cccc(CO[C@@H]2[C@H](O)[C@@H](O)C(NCc3ccccc3)C(Cc3ccccc3)S(=O)(=O)[C@@H]2Cc2ccccc2)c1 (some centres unmarked) [108/31]	–
> 5.70	5.00 to 5.70	O=S1(=O)C(Cc2ccccc2)C(NCc2ccccc2)[C@H](O)[C@@H](O)[C@@H](OCc2ccccc2)[C@H]1Cc1ccccc1 (some centres unmarked) [108/34]	–
> 5.70	5.00 to 5.70	O=S1(=O)C(Cc2ccccc2)C(NCCCc2ccccc2)[C@H](O)[C@@H](O)[C@@H](OCc2ccccc2)[C@H]1Cc1ccccc1 (some centres unmarked) [108/35]	–
> 5.70	5.00 to 5.70	O=S1(=O)[C@H](Cc2ccccc2)[C@H](OCc2ccccn2)[C@H](O)[C@@H](O)[C@@H](OCc2ccccn2)[C@H]1Cc1ccccc1 [120/8]	–
> 5.70	5.00 to 5.70	O=S1(=O)[C@H](Cc2ccccc2)[C@H](OCc2ccccn2)[C@H](O)[C@@H](O)[C@@H](OCc2cccc[n+]2[O-])[C@H]1Cc1ccccc1 [120/9]	–
–	4.30 to 5.00	Cc1nc(COC2C(O)C(O)C(OCc3csc(C)n3)C(Cc3ccccc3)S(=O)(=O)C2Cc2ccccc2)cs1 (centres unmarked) [120/22]	–
–	> 5.70	O=S1(=O)C(Cc2ccccc2)C(OCc2cncs2)C(O)C(O)C(OCc2cncs2)C1Cc1ccccc1 (centres unmarked) [120/25]	–
–	> 5.70	Cc1cccc(COC2C(O)C(O)C(OCc3cccc(C)c3)C(Cc3ccccc3)S(=O)(=O)C2Cc2ccccc2)c1 (centres unmarked) [120/31]	–
–	> 5.70	COc1cccc(COC2C(O)C(O)C(OCc3cccc(OC)c3)C(Cc3ccccc3)S(=O)(=O)C2Cc2ccccc2)c1 (centres unmarked) [120/34]	–
–	–	O=[N+]([O-])c1cccc(COC2C(O)C(O)C(OCc3cccc([N+](=O)[O-])c3)C(Cc3ccccc3)[S+]([O-])C2Cc2ccccc2)c1 (centres unmarked) [120/44]	pIC50 (HIV IIIB): > 5.70
–	–	O=[N+]([O-])c1cccc(COC2C(O)C(O)C(OCc3cccc([N+](=O)[O-])c3)C(Cc3ccccc3)S(=O)(=O)C2Cc2ccccc2)c1 (centres unmarked) [120/45]	pIC50 (HIV IIIB): > 5.70
–	> 5.70	Nc1cccc(COC2C(O)C(O)C(OCc3cccc(N)c3)C(Cc3ccccc3)S(=O)(=O)C2Cc2ccccc2)c1 (centres unmarked) [120/46]	–
> 5.70	–	CN(C)c1nc(CO[C@@H]2[C@H](O)[C@@H](O)[C@@H](OCc3csc(N(C)C)n3)[C@@H](Cc3ccccc3)S(=O)(=O)[C@@H]2Cc2ccccc2)cs1 [125/14]	–
–	–	O=[N+]([O-])c1ccc(OC2C(O)C(O)C(Oc3ccc([N+](=O)[O-])cc3)C(Cc3ccccc3)S(=O)(=O)C2Cc2ccccc2)cc1 (centres unmarked) [125/17]	pIC50 (HIV IIIB): > 5.70; pIC50 (HIV protease): > 5.70
5.00 to 5.70	–	Cc1ccc(OC2C(O)C(O)C(Oc3ccc(C)cn3)C(Cc3ccccc3)S(=O)(=O)C2Cc2ccccc2)nc1 (centres unmarked) [125/21]	–
–	–	O=[N+]([O-])c1ccc(OC2C(O)C(O)C(Oc3ccc([N+](=O)[O-])c(C(F)(F)F)c3)C(Cc3ccccc3)S(=O)(=O)C2Cc2ccccc2)cc1C(F)(F)F (centres unmarked) [125/27]	pIC50 (HIV protease): > 5.70
> 5.70	> 5.70	Nc1ccc(OC2C(O)C(O)C(Oc3ccc(N)c(C(F)(F)F)c3)C(Cc3ccccc3)S(=O)(=O)C2Cc2ccccc2)cc1C(F)(F)F (centres unmarked) [125/28]	–
4.30 to 5.00	–	Cc1cccc(O[C@@H]2[C@H](O)[C@@H](O)[C@@H](Oc3cccc(C)n3)[C@@H](Cc3ccccc3)S(=O)(=O)[C@@H]2Cc2ccccc2)n1 [128/31]	–
4.30 to 5.00	–	Cc1ccnc(O[C@@H]2[C@H](O)[C@@H](O)[C@@H](Oc3cc(C)ccn3)[C@@H](Cc3ccccc3)S(=O)(=O)[C@@H]2Cc2ccccc2)c1 [128/35]	–
